We go through 1 compound from ChEMBL document CHEMBL5500364, “Design, synthesis, and biological evaluation of some 2-(3-oxo-5,6-diphenyl-1,2,4-triazin-2(3H)-yl)-N-phenylacetamide hybrids as MTDLs for Alzheimer's disease therapy” (Eur J Med Chem, 2024).

Data set [1] is described as follows: Permeability of compound in PBS at pH 7.4 incubated for 18 hrs by PAMPA-BBB assay.
The test system of another data set is SH-SY5Y. Kind of data set: Neuroprotective activity against amyloid-beta(1 to 42) induced oxidative stress in differentiated human SH-SY5Y cells assessed as increase in cell viability at 40 uM preincubated with amyloid-beta (1 to 42 ) for 24 hrs followed by compound addition and measured after 48 hrs by MTT assay relative to control. In kind it is functional.

In data set [2] the target is Amyloid-beta precursor protein (Homo sapiens) (UniProt P05067). Kind of data set: Inhibition of amyloid beta (1 to 42) (unknown origin) self aggregation ar 5 to 20 uM incubated for 48 hrs by Thioflavin T fluorescence assay relative to control. The conditions noted are these: dose 5-20 µM.
Data set [3] has the same target. Kind of data set: Inhibition of human AchE-induced amyloid beta (1 to 42) (unknown origin) aggregation at 5 to 20 uM incubated for 48 hrs by Thioflavin T fluorescence assay relative to control. Particulars: dose 5-20 µM.
For data set [4] the target is unchanged. Briefly: Inhibition of amyloid beta (1 to 42) (unknown origin) aggregation assessed as reduction in amyloid-beta aggregates at 50 uM incubated for 48 hrs by TEM analysis.
Data set [5] in a line: Acute toxicity in Wistar rat assessed as toxicity signs at 500 to 1000 mg/kg, po administered for 14 days. In kind it is organism-based. Particulars: in vivo, 336 h, dose 500-1000 mg/kg, time 14 day.
Data set [6] in a line: Acute toxicity in Wistar rat assessed as effect on vacuole appearance in liver at 500 to 1000 mg/kg, po administered for 14 days by histopathological analysis. Type of data set: organism-based. The conditions noted are these: in vivo, 336 h, dose 500-1000 mg/kg, time 14 day.
A further data set relates to Hippocampus. Kind of data set: Reversal of scopolamine-induced oxidative stress in male Wistar rat brain hippocampus assessed as increase in GSH level preadministered orally with compound for 30 mins starting from 7 th day trail followed by scopolamine administration and measured after 5 mins. Type of data set: functional, tissue-based. Particulars: dose 2.5-10 mg/kg, route po, time 35.0 min.

For data set [7], the system named is Rattus norvegicus. Kind of data set: Reversal of amyloid beta (1 to 42 residues) induced cognitive impairment in Wistar rat assessed as reduction in neural dispersion at DG region in hippocampus at 2.5 to 10 mg/kg, po pretreated with amyloid beta for 7 days followed by compound administration for 9 days and measured after 5 days by Nissl's staining based analysis. In kind it is functional, organism-based. Particulars: dose 2.5-10 mg/kg, time 14.0 day.

Data set [8] concerns Rattus norvegicus. Kind of data set: Reversal of amyloid beta (1 to 42 residues) induced cognitive impairment in Wistar rat assessed as decrease in APP protein level at 10 mg/kg, po pretreated with amyloid beta for 7 days followed by compound administration for 9 days and measured after 5 days by Western blot analysis. Type of data set: functional, organism-based. The conditions noted are these: time 14.0 day. (A western blot detects proteins with antibodies after separation by electrophoresis.)

The nature of data set [9]: Toxicity in wildtype Oregon R-positive Drosophila assessed as cell viability in gut at 50 uM by MTT assay relative to control. The conditions noted are these: read-out: Activity. In kind it is tissue-based. In general terms: Formazan colour is commonly taken as a measure of viable cells.

Activity calls are given as the source filed them. The rule behind the calls is not given here.

Sequence of Amyloid-beta precursor protein (Homo sapiens) (P05067 whole entry): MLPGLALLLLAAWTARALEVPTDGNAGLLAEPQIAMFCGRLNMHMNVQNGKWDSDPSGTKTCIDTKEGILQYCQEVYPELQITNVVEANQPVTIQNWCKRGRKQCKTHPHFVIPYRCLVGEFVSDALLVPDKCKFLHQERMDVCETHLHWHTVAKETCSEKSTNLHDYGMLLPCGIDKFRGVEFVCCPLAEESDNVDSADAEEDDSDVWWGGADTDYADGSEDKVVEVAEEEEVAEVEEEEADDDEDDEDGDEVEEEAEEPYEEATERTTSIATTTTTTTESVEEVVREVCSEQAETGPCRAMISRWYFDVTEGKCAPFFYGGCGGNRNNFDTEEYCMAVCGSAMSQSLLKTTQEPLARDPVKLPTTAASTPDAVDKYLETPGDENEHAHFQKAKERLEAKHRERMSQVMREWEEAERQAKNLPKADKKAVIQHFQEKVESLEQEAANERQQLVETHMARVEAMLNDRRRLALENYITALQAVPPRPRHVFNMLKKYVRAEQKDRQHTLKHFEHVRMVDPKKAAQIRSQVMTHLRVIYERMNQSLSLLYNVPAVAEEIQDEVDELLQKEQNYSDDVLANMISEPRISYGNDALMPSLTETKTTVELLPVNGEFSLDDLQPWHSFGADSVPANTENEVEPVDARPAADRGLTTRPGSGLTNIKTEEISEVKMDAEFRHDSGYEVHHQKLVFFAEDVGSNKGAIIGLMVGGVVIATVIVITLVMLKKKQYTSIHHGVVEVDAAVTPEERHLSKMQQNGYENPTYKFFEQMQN

In general, Papp refers to a coefficient for how fast a substance crosses the barrier. Low readings indicate poor permeation, high ones ready permeation. A word on the inhibition: it is the change of the read-out against control, counted positive when it falls. Regarding `COc1cc(NC(=O)Cn2nc(-c3ccccc3)c(-c3ccccc3)nc2=O)cc(OC)c1`, the Papp at 18 h in data set [1] worked out at 5.64 ×10⁻⁶ cm/s. Further, the Activity was 72% in the data set with SH-SY5Y, “Non-Toxic” in data set [5], “Non-Toxic” in data set [6] and “Dose-Dependent Effect” in the data set on Hippocampus. Further, the figures for the inhibition in data set [2] and in data set [3] were 23.6% and 41.3%, respectively. Further, the inhibition entry in [4] was “Active”. Besides, the outcome in the data set on Rattus norvegicus [7] and with Rattus norvegicus [8] was Active. Also, the viability at 50 µM in data set [9] came to 38%.
